Laboratory results taken from patent US8906953B2, “Pyrrolidine substitute flavones for the treatment of inflammatory disorders” (Piramal Enterprises Limited, priority 2010, dated 2014).

What was measured:
TNF-α = test: Spontaneous TNF-α release from synovial cells of RA patients; type: cell-based; settings: Homo sapiens, Synovial cell, freshly isolated synovial cells from RA patients, 16 hours
Experimental: Cytokine production in synovial cells obtained from rheumatoid arthritis patients undergoing knee replacement surgery, was measured as per the method described in reference, Lancet, 1989, 29, 244-247, the disclosure of which is incorporated herein by reference for the teaching of the assay. The synovial membrane tissue was digested by incubating at 37° C. for 3 hours in an atmosphere of 5% CO2, in Roswell Park Memorial Institute (RPMI) medium containing penicillin-G (100 U/mL), streptomycin (100 μg/mL), amphotericin B (50 ng/mL) (GIBCO), 1.33 mg/mL collagenase Type I (Worthington Biochemical Corporation, New Jersey, USA), 0.5 μg/mL DNAse Type I (SIGMA) and 8.33 U/mL heparin (Biological E. Limited, India). The digested tissue was then filtered through a membrane (mesh size 70 micron) (SIGMA), the cells were washed 3 times and suspended in complete medium (RPMI supplemented with 5% FCS and 5% human serum). The cell concentration was adjusted to 1×10^6 cells/mL. The viability as determined by trypan blue dye exclusion was uniform Ly≧98%. The cell suspension (100 μL) was added to the wells of a 96-well culture plate. […] The final concentration of DMSO was adjusted to 0.5%. The vehicle (0.5° A) DMSO) was used as control. SB 203580 (20 μM) was used as a standard. The plates were incubated for 16 hours at 37° C. in 5% CO2 atmosphere. […]

IL-1β = test: LPS-induced IL-1β release from hPBMCs (ELISA); type: cell-based; settings: Homo sapiens
Experimental: Cytokine production by lipopolysaccharides (LPS) in hPBMCs (human peripheral blood mononuclear cells) was measured as in reference, Physiol. Res. 2003, 52, 593-598, the disclosure of which is incorporated by reference for the teaching of the assay. Blood was collected from healthy donors into Potassium EDTA vacutainer tubes (BID vacutainer). The PBMC were isolated using gradient centrifugation in Histopaque-1077 solution (Sigma). Isolated PBMC were suspended in RPMI 1640 (Rosewell Park Memorial Institute) culture medium (Sigma-Aldrich Fine Chemicals, USA) containing 10% fetal bovine serum (FBS) (JRH, USA), 100 U/mL penicillin (Sigma Chemical Co. St Louis, Mo., USA) and 100 μg/mL streptomycin (Sigma Chemical Co. St Louis, Mo.). The cell concentration was adjusted to 1×10^6 cells/mL. The viability as determined by trypan blue dye exclusion was uniform Ly≧98%. The cell suspension (100 μL) was added to the wells of a 96-well culture plate. Following cell plating, 79 μL of the culture medium and 1 μL of various concentrations of test compounds (compounds of formula 1) (final concentration 0.001, 0.003, 0.005, 0.01, 0.025, 0.03, 0.05, 0.1, 0.25, 0.3 and 1 μM) dissolved in DMSO (dimethyl sulfoxide, Sigma, Mo., USA) were added to the cells. The final concentration of DMSO was adjusted to 0.5%. The vehicle (0.5% DMSO) was used as control. […]

PDE4 = PDE4 inhibition, cAMP fluorescence assay in salbutamol-stimulated U937 cells; type: cell-based, human; settings: for Relative Fluorescence (RF): U937 cells, salbutamol 1 μM
Experimental: Culture medium was changed every 2-3 days and always 24 hours before harvest. RPMI medium, FBS and Salbutamol were purchased from Sigma-Aldrich (USA). Rolipram was synthesized in the Medicinal Chemistry Department, Piramal Life Sciences Limited.
Rolipram was used as a standard (0.3, 1 and 3 μM). […] Fluorescence measurements were taken with Polarstar Optima (BMG Labtech-Germany).
Relative fluorescence was calculated using the following formula where: RF=Relative Fluorescence, Fo=fluorescent intensity of the blank or buffer control, F=fluorescence of cAMP or sample: RF=(Fo−F)/Fo
A standard curve was plotted using the RF values of the given standards and the values of cAMP corresponding to the test compounds were determined using the standard plot.

IC50 (TNF-α): 20 µM
IC50 (IL-1β): 0.1 µM
SMILES: CN1CC[C@@H](c2c(O)cc(O)c3c(=O)cc(-c4ccc(C(F)(F)F)cc4Cl)oc23)[C@@H]1CO.Cl [Compound of example 3, (+)-trans-2-(2-Chloro-4-trifluoromethyl-phenyl)-5,7-dihydroxy-8-(2-hydroxymethyl-1-methyl-pyrrolidin-3-yl)-chromen-4-one hydrochloride]
PDE4 inhibition (conclusion) (PDE4; U937 cells, 1, 3 and 10 μM): not a PDE4 inhibitor
Relative Fluorescence (RF) (PDE4; concentration 1 μM): 0.71
Relative Fluorescence (RF) (PDE4; concentration 3 μM): 0.95
Relative Fluorescence (RF) (PDE4; concentration 10 μM): 0.95
